Test results taken from patent US12655116B2, “Substituted isophthalic acid diamides” (Bayer Aktiengesellschaft, priority 2020, dated 2026).

Legend:
[1] = system: MATIN; assay: Pre-emergence herbicidal action against MATIN; assay type: in vivo, Matricaria inodora; settings: for pest or weed control at 20 g/ha / pest or weed control at 80 g/ha: Tripleurospermum inodorum, 504 h
Summary of the method: (§1)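 Visual rating at 3 weeks vs untreated pots; 0–100% scale, 100% = plants died. Treatment: aqueous WP/EC spray onto covering soil, 600–800 l/ha, 0.2% wetter, seeds in sandy loam.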

[2] = system: VERPE; assay: Pre-emergence herbicidal action against VERPE; assay type: in vivo, Veronica persica; settings: Veronica persica, 504 h; for pest or weed control at 80 g/ha: dosage 80 g/ha
Summary of the method: as §1

[3] = system: VERPE; assay: Post-emergence herbicidal action against VERPE; assay type: in vivo, Veronica persica; settings: Veronica persica, 504 h
Summary of the method: (§2)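 Greenhouse pot plants in sandy loam were sprayed at the one-leaf stage, 2 to 3 weeks after sowing, with WP or EC formulations as aqueous suspension or emulsion (600 to 800 l/ha water, 0.2% wetting agent). About 3 weeks later, damage was scored visually against untreated controls as % action (100% = dead, 0% = like control).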

[4] = system: MATIN; assay: Post-emergence herbicidal action against MATIN; assay type: in vivo, Matricaria inodora; settings: Tripleurospermum inodorum, 504 h
Summary of the method: as §2

[5] = system: SETVI; assay: Post-emergence herbicidal action against SETVI; assay type: in vivo, Setaria viridis
Summary of the method: as §2

[6] = system: POLCO; assay: Pre-emergence herbicidal action against POLCO; assay type: in vivo, Polygonum convolvulus; settings: dosage 80 g/ha; for pest or weed control at 80 g/ha: Fallopia convolvulus, 504 h
Excerpt: Seeds of monocotyledonous and dicotyledonous weed plants and crop plants are laid out in sandy loam soil in wood-fiber pots and covered with soil. The compounds of the invention, formulated in the form of wettable powders (WP) or as emulsion concentrates (EC), are then applied to the surface of the covering soil in the form of an aqueous suspension or emulsion at a water application rate equivalent to 600 to 800 l/ha, with addition of 0.2% wetting agent. After the treatment, the pots are placed in a greenhouse and kept under good growth conditions for the trial plants. The damage to the test plants is scored visually after a test period of 3 weeks by comparison with untreated controls (herbicidal activity in percent (%): 100% activity=the plants have died, 0% activity=like control plants). […] The tables below illustrate, in an illustrative manner, the post-emergence herbicidal action of the compounds of the invention, the herbicidal activity being stated in percent.

[7] = system: SETVI; assay: Pre-emergence herbicidal action against SETVI; assay type: in vivo, Setaria viridis
Summary of the method: as §1

[8] = system: ABUTH; assay: Pre-emergence herbicidal action against ABUTH; assay type: in vivo, Abutilon theophrasti; settings: for pest or weed control at 80 g/ha / pest or weed control at 20 g/ha: Abutilon theophrasti, 504 h; for pest or weed control at 20 g/ha: read-out: Pre-emergence action against ABUTH (herbicidal activity in percent)
Summary of the method: as §1

[9] = system: PHBPU; assay: Post-emergence herbicidal action against PHBPU; assay type: in vivo, Pharbitis purpurea; settings: Ipomoea purpurea, 504 h
Summary of the method: as §2

[10] = system: AVEFA; assay: Pre-emergence herbicidal action against AVEFA; assay type: in vivo, Avena fatua; settings: Avena fatua, 504 h, pre-emergence
Summary of the method: as §1

[11] = system: AMARE; assay: Post-emergence herbicidal action against AMARE; assay type: in vivo, Amaranthus retroflexus; settings: 20 g/ha, visual assessment about 3 weeks after treatment, 100% = plants have died, 0% = like control plants; for pest or weed control at 20 g/ha: Amaranthus retroflexus, 504 h
Summary of the method: as §2

[12] = system: VIOTR; assay: Pre-emergence herbicidal action against VIOTR; assay type: in vivo, Viola tricolor
Summary of the method: as §1

[13] = system: AMARE; assay: Pre-emergence herbicidal action against AMARE; assay type: in vivo, Amaranthus retroflexus; settings: for pest or weed control at 20 g/ha / pest or weed control at 80 g/ha: Amaranthus retroflexus, 504 h
Summary of the method: as §1

[14] = system: ALOMY; assay: Pre-emergence herbicidal action against ALOMY; assay type: in vivo, Alopecurus myosuroides; settings: 80 g/ha, pre-emergence, scored visually after 3 weeks vs untreated controls (100% = plants have died, 0% = like control plants)
Summary of the method: as §1

[15] = system: ECHCG; assay: Post-emergence herbicidal action against ECHCG; assay type: in vivo, Echinochloa crus-galli
Summary of the method: as §2

[16] = system: ABUTH; assay: Post-emergence herbicidal action against ABUTH; assay type: in vivo, Abutilon theophrasti; settings: visual assessment about 3 weeks after treatment vs untreated controls
Summary of the method: as §2

[17] = system: VIOTR; assay: Post-emergence herbicidal action against VIOTR; assay type: in vivo, Viola tricolor; settings: Viola tricolor, 504 h
Summary of the method: as §2

[18] = system: ECHCG; assay: Pre-emergence herbicidal action against ECHCG; assay type: in vivo, Echinochloa crus-galli; settings: 80 g/ha
Summary of the method: as §1

[19] = system: ALOMY; assay: Post-emergence herbicidal action against ALOMY; assay type: in vivo, Alopecurus myosuroides; settings: Alopecurus myosuroides, 504 h, visual assessment about 3 weeks after treatment vs untreated controls
Summary of the method: as §2

[20] = system: PHBPU; assay: Pre-emergence herbicidal action against PHBPU; assay type: in vivo, Pharbitis purpurea; settings: dosage 80 g/ha
Summary of the method: as §1

[21] = system: DIGSA; assay: Post-emergence herbicidal action against DIGSA; assay type: in vivo, Digitaria sanguinalis; settings: 20 g/ha
Summary of the method: as §2

[22] = system: DIGSA; assay: Pre-emergence herbicidal action against DIGSA; assay type: in vivo, Digitaria sanguinalis
Summary of the method: as §1

[23] = Setaria viridis, 504 h, dosage 20 g/ha
[24] = 80 g/ha, scored visually after 3 weeks vs untreated controls (100% = plants have died, 0% = like control plants)
[25] = dosage 20 g/ha, scored visually after 3 weeks vs untreated controls, 100% = plants have died, 0% = like control plants
[26] = 20 g/ha, scored visually after 3 weeks vs untreated controls, 100% = plants have died, 0% = like control plants
[27] = 80 g/ha, scored visually after 3 weeks vs untreated controls, 100% = plants have died, 0% = like control plants

Cc1c(C(=O)Nc2nnnn2C)ccc(C(F)F)c1C(=O)NC(C)C [Example 1-346]
100%: pest or weed control at 80 g/ha ([1]; dosage 80 g/ha) | pest or weed control at 5 g/ha ([5]; Setaria viridis, 504 h, dosage 5 g/ha) | pest or weed control at 20 g/ha [5, 23] | pest or weed control at 20 g/ha [7, 23] | pest or weed control at 80 g/ha ([7]; Setaria viridis, 504 h, dosage 80 g/ha) | pest or weed control at 80 g/ha [8, 24] | pest or weed control at 20 g/ha [11] | pest or weed control at 80 g/ha ([12]; Viola tricolor, 504 h, dosage 80 g/ha) | pest or weed control at 20 g/ha [13, 26] | pest or weed control at 80 g/ha [13, 27] | pest or weed control at 20 g/ha ([16]; Abutilon theophrasti, 504 h, dosage 20 g/ha) | pest or weed control at 20 g/ha ([17]; 20 g/ha)
90%: pest or weed control at 20 g/ha ([1]; dosage 20 g/ha) | pest or weed control at 20 g/ha ([4]; dosage 20 g/ha) | pest or weed control at 20 g/ha [8, 25] | pest or weed control at 20 g/ha ([9]; dosage 20 g/ha) | pest or weed control at 80 g/ha ([14]; Alopecurus myosuroides, 504 h) | pest or weed control at 20 g/ha ([15]; Echinochloa crus-galli, 504 h, dosage 20 g/ha) | pest or weed control at 5 g/ha ([17]; 5 g/ha) | pest or weed control at 80 g/ha ([18]; Echinochloa crus-galli, 504 h) | pest or weed control at 20 g/ha ([19]; dosage 20 g/ha)
80%: pest or weed control at 80 g/ha [2] | pest or weed control at 5 g/ha ([3]; 5 g/ha) | pest or weed control at 20 g/ha ([3]; 20 g/ha) | pest or weed control at 5 g/ha ([4]; dosage 5 g/ha) | pest or weed control at 80 g/ha [6] | pest or weed control at 5 g/ha ([9]; dosage 5 g/ha) | pest or weed control at 80 g/ha ([10]; 80 g/ha) | pest or weed control at 20 g/ha ([10]; 20 g/ha, scored visually after 3 weeks, 100% = plants have died, 0% = like control plants) | pest or weed control at 20 g/ha ([12]; Viola tricolor, 504 h, dosage 20 g/ha) | pest or weed control at 5 g/ha ([15]; Echinochloa crus-galli, 504 h, dosage 5 g/ha) | pest or weed control at 5 g/ha ([16]; Abutilon theophrasti, 504 h, dosage 5 g/ha) | pest or weed control at 5 g/ha ([19]; dosage 5 g/ha)

CCCNC(=O)c1c(C(F)F)ccc(C(=O)Nc2nnc(C)o2)c1Cl [Example 6-259]
90%: Pre-emergence action against MATIN in % ([1]; dosage 20 g/ha) | Post-emergence action against SETVI in % ([5]; dosage 20 g/ha) | Pre-emergence action against POLCO in % [6] | Pre-emergence action against ABUTH (herbicidal activity in percent) [8, 25] | Post-emergence action against DIGSA [21] | Post-emergence action against ECHCG in % ([15]; dosage 20 g/ha)
80%: Pre-emergence action against VIOTR in % ([12]; dosage 80 g/ha) | Pre-emergence action against PHBPU in % [20] | Pre-emergence action against ALOMY (herbicidal activity) [14] | Post-emergence action against ECHCG in % ([15]; dosage 5 g/ha) | Post-emergence action against ABUTH in % ([16]; dosage 20 g/ha)
100%: Pre-emergence action against MATIN in % ([1]; dosage 80 g/ha) | Pre-emergence action against SETVI in % ([7]; dosage 80 g/ha) | Pre-emergence action against ABUTH (herbicidal activity) [8, 24] | Post-emergence action at 20 g/ha against AMARE in % [11] | Pre-emergence action against AMARE in % [13, 26] | Pre-emergence action against AMARE in % [13, 24] | Pre-emergence action against DIGSA in % ([22]; dosage 20 g/ha) | Pre-emergence action against DIGSA in % ([22]; dosage 80 g/ha) | Pre-emergence action against ECHCG in % [18]

Cn1nnnc1NC(=O)c1ccc(C(F)F)c(C(=O)Nc2ccccc2)c1Cl [Example 1-161]
90%: pest or weed control at 20 g/ha ([1]; dosage 20 g/ha) | pest or weed control at 80 g/ha [2] | pest or weed control at 80 g/ha [8, 24] | pest or weed control at 20 g/ha [11]
80%: pest or weed control at 20 g/ha ([2]; dosage 20 g/ha) | pest or weed control at 80 g/ha [6] | pest or weed control at 20 g/ha [8, 25] | pest or weed control at 80 g/ha ([20]; Ipomoea purpurea, 504 h)
100%: pest or weed control at 80 g/ha ([1]; dosage 80 g/ha) | pest or weed control at 20 g/ha [13, 26] | pest or weed control at 80 g/ha [13, 27]
